Measured values taken from patent US20080234276A1, “Heterocyclic Triazines as Hypoxic Selective Protein Kinase Inhibitors” (SENTINEL ONCOLOGY LIMITED, priority 2005, published 2008).
Blank lines part the entries; values can stand above or below the molecule they belong to.

Legend:
Format in all cases: biochemical
Aurora-A (h) = biological target: T1, Aurora-A (h) (Homo sapiens, UniProt O14965); experiment: Aurora-A (h) kinase assay (Upstate, 33P-ATP filtermat); details: 100 uM of inhibitor, ATP 15 uM; for inhibition at 100 µM: read-out: AuroraA (h) % inhibition
T1 construct: purchased Upstate Ltd
T1 sequence (O14965 1-403): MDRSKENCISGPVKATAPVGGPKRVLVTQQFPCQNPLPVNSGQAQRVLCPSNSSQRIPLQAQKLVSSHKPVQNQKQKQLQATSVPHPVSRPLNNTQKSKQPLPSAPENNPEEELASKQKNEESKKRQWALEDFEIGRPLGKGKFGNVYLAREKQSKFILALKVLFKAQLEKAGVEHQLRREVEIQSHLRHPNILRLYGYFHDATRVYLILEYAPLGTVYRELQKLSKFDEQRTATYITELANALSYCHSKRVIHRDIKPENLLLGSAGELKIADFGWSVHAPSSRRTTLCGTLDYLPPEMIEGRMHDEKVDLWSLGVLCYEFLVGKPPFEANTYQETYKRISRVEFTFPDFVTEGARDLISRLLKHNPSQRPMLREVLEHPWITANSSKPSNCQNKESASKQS
Method: (§1) The compounds of the invention prepared in Examples 1-32 were tested for kinase inhibition against a range of common protein kinases. All kinase assays were conducted at Upstate Ltd, Gemini Crescent, Dundee Technology Park, Dundee, DD2 1SW, UK in accordance with its standard protocols as follows:
(§2) In a final reaction volume of 25 μl, Aurora-A (h) (5-10 mU) is incubated with 8 mM MOPS pH 7.0, 0.2 mM EDTA, 200 μM LRRASLG (Kemptide), 10 mM MgAcetate and […]-33P-ATP] (specific activity approx. 500 cpm/pmol, concentration as required). The reaction is initiated by the addition of the MgATP mix. After incubation for 40 minutes at room temperature, the reaction is stopped by the addition of 5 μl of a 3% phosphoric acid solution. 10 μl of the reaction is then spotted onto a P30 filtermat and washed three times for 5 minutes in 50 mM phosphoric acid and once in methanol prior to drying and scintillation counting.
(§3) Data for compounds. ATP concentrations are: Arg=45 uM; abl=45 uM; AuroraA=15 uM; Chk1=90 uM; KDR=90 uM; P70S6=15 uM. Figures represent the % inhibition when tested at 100 uM of inhibitor.

KDR (h) = biological target: T2, KDR (h) (Homo sapiens, UniProt P35968); experiment: KDR (h) kinase assay (Upstate, 33P-ATP filtermat); details: 100 uM of inhibitor; ATP 90 uM
T2 construct: purchased Upstate Ltd
T2 sequence (P35968 20-1356): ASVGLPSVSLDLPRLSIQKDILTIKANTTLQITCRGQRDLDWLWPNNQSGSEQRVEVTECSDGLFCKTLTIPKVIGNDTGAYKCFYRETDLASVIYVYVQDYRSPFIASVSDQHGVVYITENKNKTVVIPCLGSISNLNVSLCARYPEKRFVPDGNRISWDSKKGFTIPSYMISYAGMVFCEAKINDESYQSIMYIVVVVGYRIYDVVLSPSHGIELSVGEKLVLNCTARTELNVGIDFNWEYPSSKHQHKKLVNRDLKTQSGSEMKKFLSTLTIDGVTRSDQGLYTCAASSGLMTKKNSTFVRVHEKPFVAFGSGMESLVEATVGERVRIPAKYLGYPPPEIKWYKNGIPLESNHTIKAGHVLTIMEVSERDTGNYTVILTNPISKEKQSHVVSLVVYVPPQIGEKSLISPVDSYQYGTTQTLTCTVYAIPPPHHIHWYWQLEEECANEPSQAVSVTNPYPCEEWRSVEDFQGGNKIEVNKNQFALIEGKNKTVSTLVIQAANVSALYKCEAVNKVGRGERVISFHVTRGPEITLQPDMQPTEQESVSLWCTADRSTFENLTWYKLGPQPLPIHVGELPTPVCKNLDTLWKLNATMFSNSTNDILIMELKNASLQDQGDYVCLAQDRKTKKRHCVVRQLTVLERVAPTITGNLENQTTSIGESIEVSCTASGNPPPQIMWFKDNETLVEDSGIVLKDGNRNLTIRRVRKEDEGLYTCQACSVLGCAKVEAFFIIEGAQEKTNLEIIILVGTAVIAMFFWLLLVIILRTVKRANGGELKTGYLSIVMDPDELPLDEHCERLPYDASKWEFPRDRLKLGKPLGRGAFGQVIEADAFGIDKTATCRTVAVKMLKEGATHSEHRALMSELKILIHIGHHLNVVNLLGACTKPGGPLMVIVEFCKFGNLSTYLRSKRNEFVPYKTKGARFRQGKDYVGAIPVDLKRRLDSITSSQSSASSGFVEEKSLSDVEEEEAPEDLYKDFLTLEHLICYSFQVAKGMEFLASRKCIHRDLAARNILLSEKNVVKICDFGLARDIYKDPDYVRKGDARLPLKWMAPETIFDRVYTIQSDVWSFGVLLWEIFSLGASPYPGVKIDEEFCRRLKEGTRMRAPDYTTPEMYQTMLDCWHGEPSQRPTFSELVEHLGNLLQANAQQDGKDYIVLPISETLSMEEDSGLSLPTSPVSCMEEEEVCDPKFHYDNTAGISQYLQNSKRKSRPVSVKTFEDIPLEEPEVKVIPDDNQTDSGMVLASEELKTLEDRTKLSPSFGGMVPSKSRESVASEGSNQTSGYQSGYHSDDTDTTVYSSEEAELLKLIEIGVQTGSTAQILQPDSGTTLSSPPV
Method: as §1
as §2, with “μl, KDR” for “μl, Aurora-A”, “EDTA, 0.33 mg/ml myelin basic protein,” for “EDTA, 200 μM LRRASLG (Kemptide),”, “and [[…]-33P-ATP]” for “and […]-33P-ATP]”, “in 75” for “in 50”
as §3

p70S6K (h) = biological target: T3, p70S6K (h) (Homo sapiens, UniProt P23443); experiment: p70S6K (h) kinase assay (Upstate, 33P-ATP filtermat); details: 100 uM of inhibitor, ATP 15 uM; for inhibition at 100 µM: read-out: P70S6 (h) % inhibition
T3 construct: purchased Upstate Ltd
T3 sequence (P23443 whole entry): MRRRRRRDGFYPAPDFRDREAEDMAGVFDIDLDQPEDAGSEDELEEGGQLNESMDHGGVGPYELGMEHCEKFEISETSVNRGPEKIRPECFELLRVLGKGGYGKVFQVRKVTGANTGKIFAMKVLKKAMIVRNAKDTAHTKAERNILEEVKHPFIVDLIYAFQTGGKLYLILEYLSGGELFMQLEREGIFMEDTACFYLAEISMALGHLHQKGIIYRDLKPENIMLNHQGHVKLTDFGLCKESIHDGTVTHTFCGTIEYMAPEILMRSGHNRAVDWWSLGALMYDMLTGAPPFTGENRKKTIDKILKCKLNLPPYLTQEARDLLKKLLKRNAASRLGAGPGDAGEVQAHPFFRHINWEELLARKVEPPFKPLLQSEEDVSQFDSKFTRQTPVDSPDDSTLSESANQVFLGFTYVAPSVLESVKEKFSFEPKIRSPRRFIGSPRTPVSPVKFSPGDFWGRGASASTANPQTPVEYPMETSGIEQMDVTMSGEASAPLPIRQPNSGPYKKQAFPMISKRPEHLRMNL
Method: as §1
as §2, with “μl, p70S6K” for “μl, Aurora-A”, “EDTA, 100” for “EDTA, 200”, “μM KKRNRTLTV,” for “μM LRRASLG (Kemptide),”, “and [[…]-33P-ATP]” for “and […]-33P-ATP]”, “in 75” for “in 50”
as §3

Arg (h) = biological target: T4, Arg (h) (Homo sapiens, UniProt P42684); experiment: Arg (h) kinase assay (Upstate, 33P-ATP filtermat); details: 100 uM of inhibitor; ATP 45 uM
T4 construct: purchased Upstate Ltd
T4 sequence (P42684 whole entry): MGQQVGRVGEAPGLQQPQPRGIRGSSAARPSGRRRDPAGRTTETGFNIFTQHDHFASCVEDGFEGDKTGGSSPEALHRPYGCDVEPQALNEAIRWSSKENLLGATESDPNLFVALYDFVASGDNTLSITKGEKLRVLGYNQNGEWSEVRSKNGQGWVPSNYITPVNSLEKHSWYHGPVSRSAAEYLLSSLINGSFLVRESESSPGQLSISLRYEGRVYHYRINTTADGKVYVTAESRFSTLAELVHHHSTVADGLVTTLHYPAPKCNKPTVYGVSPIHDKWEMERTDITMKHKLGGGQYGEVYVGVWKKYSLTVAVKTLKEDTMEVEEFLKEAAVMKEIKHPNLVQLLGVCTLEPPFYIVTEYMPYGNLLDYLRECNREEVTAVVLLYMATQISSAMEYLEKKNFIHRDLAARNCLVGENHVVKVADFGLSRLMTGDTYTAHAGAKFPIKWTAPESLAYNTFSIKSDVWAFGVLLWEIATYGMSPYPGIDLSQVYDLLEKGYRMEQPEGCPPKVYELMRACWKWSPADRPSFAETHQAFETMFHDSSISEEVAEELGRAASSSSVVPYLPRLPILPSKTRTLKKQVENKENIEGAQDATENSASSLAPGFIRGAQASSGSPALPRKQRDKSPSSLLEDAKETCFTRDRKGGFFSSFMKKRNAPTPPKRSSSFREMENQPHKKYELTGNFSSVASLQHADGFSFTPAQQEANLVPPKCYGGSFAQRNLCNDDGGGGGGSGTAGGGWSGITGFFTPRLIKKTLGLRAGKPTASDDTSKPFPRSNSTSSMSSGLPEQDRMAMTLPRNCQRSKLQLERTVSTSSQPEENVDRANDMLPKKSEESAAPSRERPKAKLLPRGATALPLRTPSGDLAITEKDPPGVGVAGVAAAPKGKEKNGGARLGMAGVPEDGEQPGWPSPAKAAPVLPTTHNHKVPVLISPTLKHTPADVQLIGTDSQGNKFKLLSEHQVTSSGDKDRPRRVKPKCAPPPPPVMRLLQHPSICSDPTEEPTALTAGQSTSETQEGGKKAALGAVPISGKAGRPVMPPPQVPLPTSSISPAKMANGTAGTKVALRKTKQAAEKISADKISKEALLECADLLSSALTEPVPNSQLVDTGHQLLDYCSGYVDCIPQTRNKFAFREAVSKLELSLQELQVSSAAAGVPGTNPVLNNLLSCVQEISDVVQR
Method: as §1
as §2, with “μl, Arg” for “μl, Aurora-A”, “EDTA, 50” for “EDTA, 200”, “μM EAIYAAPFAKKK,” for “μM LRRASLG (Kemptide),”, “and [[…]-33P-ATP]” for “and […]-33P-ATP]”, “in 75” for “in 50”
as §3

Abl (h) = biological target: T5, Abl (h) (Homo sapiens, UniProt P00519); experiment: Abl (h) kinase assay (Upstate, 33P-ATP filtermat); details: 100 uM of inhibitor; ATP 45 uM
T5 construct: purchased Upstate Ltd
T5 sequence (P00519 whole entry): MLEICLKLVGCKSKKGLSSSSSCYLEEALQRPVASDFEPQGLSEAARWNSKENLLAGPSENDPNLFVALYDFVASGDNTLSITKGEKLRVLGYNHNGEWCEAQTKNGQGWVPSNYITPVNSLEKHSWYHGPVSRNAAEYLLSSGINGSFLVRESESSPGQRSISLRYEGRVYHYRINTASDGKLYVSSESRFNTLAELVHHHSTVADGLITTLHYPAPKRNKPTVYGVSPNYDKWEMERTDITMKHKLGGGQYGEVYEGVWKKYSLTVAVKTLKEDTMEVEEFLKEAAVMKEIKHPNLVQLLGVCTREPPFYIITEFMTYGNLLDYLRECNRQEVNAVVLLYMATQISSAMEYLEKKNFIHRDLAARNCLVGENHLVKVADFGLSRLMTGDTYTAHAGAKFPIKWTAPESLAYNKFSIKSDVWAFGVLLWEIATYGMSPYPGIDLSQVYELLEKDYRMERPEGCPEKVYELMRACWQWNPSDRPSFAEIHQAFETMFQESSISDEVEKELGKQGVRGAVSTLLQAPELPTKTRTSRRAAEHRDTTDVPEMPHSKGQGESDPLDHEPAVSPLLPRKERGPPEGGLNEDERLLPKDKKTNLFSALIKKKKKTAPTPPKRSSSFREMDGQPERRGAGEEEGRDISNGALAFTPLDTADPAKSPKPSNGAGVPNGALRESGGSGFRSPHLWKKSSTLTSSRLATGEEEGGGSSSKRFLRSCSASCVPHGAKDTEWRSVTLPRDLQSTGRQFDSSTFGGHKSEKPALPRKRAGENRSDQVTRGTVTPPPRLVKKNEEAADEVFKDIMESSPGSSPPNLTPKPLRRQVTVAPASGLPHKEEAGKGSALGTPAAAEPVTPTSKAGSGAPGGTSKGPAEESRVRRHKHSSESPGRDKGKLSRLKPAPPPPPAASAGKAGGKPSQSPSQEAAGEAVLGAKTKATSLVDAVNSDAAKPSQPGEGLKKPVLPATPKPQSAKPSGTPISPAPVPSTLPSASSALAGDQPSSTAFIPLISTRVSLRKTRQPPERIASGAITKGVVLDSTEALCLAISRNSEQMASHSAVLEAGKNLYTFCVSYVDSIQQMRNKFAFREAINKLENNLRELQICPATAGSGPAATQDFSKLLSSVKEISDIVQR
Method: as §1
as §2, with “μl, Abl” for “μl, Aurora-A”, “EDTA, 50” for “EDTA, 200”, “μM EAIYAAPFAKKK,” for “μM LRRASLG (Kemptide),”, “and [[…]-33P-ATP]” for “and […]-33P-ATP]”, “in 75” for “in 50”
as §3

CHK1 (h) = biological target: T6, CHK1 (h) (Homo sapiens, UniProt O14757); experiment: CHK1 (h) kinase assay (Upstate, 33P-ATP filtermat); details: 100 uM of inhibitor; ATP 90 uM
T6 construct: purchased Upstate Ltd
T6 sequence (O14757 1-476): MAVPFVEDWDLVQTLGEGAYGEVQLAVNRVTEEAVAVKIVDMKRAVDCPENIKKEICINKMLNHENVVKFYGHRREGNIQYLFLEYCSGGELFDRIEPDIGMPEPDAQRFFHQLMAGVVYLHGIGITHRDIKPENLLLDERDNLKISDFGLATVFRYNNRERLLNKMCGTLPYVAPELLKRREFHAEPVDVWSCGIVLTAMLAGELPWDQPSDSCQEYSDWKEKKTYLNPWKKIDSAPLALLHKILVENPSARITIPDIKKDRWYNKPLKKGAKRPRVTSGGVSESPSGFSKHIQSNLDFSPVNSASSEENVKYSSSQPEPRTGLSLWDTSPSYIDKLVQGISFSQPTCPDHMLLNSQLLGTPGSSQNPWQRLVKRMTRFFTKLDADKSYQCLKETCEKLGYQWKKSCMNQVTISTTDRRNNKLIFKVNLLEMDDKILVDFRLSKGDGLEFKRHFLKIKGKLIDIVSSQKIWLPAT
Method: as §1
as §2, with “μl, CHK1” for “μl, Aurora-A”, “μM […],” for “μM LRRASLG (Kemptide),”, “in 75” for “in 50”
as §3

Structure (SMILES): [O-][n+]1nc(Nc2cccnc2)nc2cc(Cl)ccc21 [Example 22, (6-Chloro-1-oxy-benzo[1,2,4]triazin-3-yl)-pyridin-3-yl-amine]
AuroraA (h) % inhibition (Aurora-A (h)): 82%

Structure (SMILES): Clc1ccc2nnc(Nc3cccnc3)nc2c1 [Example 21, (6-Chloro-benzo[1,2,4]triazin-3-yl)-pyridin-3-yl-amine]
inhibition at 100 µM (Arg (h)): 84% | inhibition at 100 µM (Aurora-A (h)): 58% | inhibition at 100 µM (Abl (h)): 76%

Structure (SMILES): Cc1cc(Nc2nc3ccccc3[n+]([O-])n2)n[nH]1 [Example 10, (5-Methyl-1H-pyrazol-3-yl)-(1-oxy-benzo[1,2,4]triazin-3-yl)-amine]
Chk1 (h) % inhibition (CHK1 (h)): 20% | AuroraA (h) % inhibition (Aurora-A (h)): 40%

Structure (SMILES): c1ccc(-c2ccc3nnc(Nc4cccnc4)nc3c2)cc1 [Example 23, (6-Phenyl-benzo[1,2,4]triazin-3-yl)-pyridin-3-yl-amine]
inhibition at 100 µM (Arg (h)): 83% | inhibition at 100 µM (Aurora-A (h)): 68% | inhibition at 100 µM (Abl (h)): 80%

Structure (SMILES): Nc1nc2cc(OCCc3ccc(Cl)c(Cl)c3)ccc2[n+]([O-])n1 [Example 29, 6-[2-(3,4-Dichloro-phenyl)-ethoxy]-1-oxy-benzo[1,2,4]triazin-3-ylamine]
KDR (h) % inhibition (KDR (h)): 0% | P70S6 (h) % inhibition (p70S6K (h)): 49%

Structure (SMILES): CN(C)CCCOc1ccc(Cl)cc1NC(=O)Nc1nnc2ccccc2n1 [Example 9, 1-Benzo[1,2,4]triazin-3-yl-3-[5-chloro-2-(3-dimethylamino-propoxy)-phenyl]-urea]
inhibition at 100 µM (CHK1 (h)): 93%

Structure (SMILES): Nc1nnc2ccc(N3CCNCC3)cc2n1 [Example 26, 6-Piperazin-1-yl-benzo[1,2,4]triazin-3-ylamine]
inhibition at 100 µM (KDR (h)): 98% | inhibition at 100 µM (p70S6K (h)): 37%

Structure (SMILES): O=C(Nc1ccc2nncnc2c1)Nc1cnccn1 [Example 18, 1-Benzo[1,2,4]triazin-6-yl-3-pyrazin-2-yl-urea]
inhibition at 100 µM (CHK1 (h)): 23%

Structure (SMILES): c1ccc2nc(-c3cc[nH]n3)nnc2c1 [Example 16, 3-(1H-Pyrazol-3-yl)-benzo[1,2,4]triazine]
inhibition at 100 µM (Aurora-A (h)): 41% | inhibition at 100 µM (KDR (h)): 17% | inhibition at 100 µM (p70S6K (h)): 10%

Structure (SMILES): Nc1nc2cc(N3CCNCC3)ccc2[n+]([O-])n1 [Example 25, 1-Oxy-6-piperazin-1-yl-benzo[1,2,4]triazin-3-ylamine]
KDR (h) % inhibition (KDR (h)): 18% | P70S6 (h) % inhibition (p70S6K (h)): 43%

Results, then the molecule that gave them:

inhibition at 100 µM (Aurora-A (h)): 39% | inhibition at 100 µM (KDR (h)): 0% | inhibition at 100 µM (p70S6K (h)): 0%
Structure (SMILES): [O-][n+]1nc(-c2cc[nH]n2)nc2ccccc21 [Example 17, 3-(1H-Pyrazol-3-yl)-benzo[1,2,4]triazine 1-oxide]

Chk1 (h) % inhibition (CHK1 (h)): 10% | AuroraA (h) % inhibition (Aurora-A (h)): 90% | KDR (h) % inhibition (KDR (h)): 46% | P70S6 (h) % inhibition (p70S6K (h)): 29%
Structure (SMILES): Nc1nc2ccc(-c3ccn[nH]3)cc2[n+]([O-])n1 [Example 15, 1-Oxy-7-(2H-pyrazol-3-yl)-benzo[1,2,4]triazin-3-ylamine]

inhibition at 100 µM (CHK1 (h)): 13% | inhibition at 100 µM (Aurora-A (h)): 90% | inhibition at 100 µM (KDR (h)): 80% | inhibition at 100 µM (p70S6K (h)): 92%
Structure (SMILES): c1ccc2nc(-c3cn[nH]c3)nnc2c1 [Example 13, 3-(1H-Pyrazol-4-yl)-benzo[1,2,4]triazine]

KDR (h) % inhibition (KDR (h)): 6% | P70S6 (h) % inhibition (p70S6K (h)): 47%
Structure (SMILES): Cl.Nc1nnc2ccc(OCC3CCNCC3)cc2n1 [Example 28, 6-(Piperidin-4-ylmethoxy)-benzo[1,2,4]triazin-3-ylamine.hydrochloride]

inhibition at 100 µM (CHK1 (h)): 3% | inhibition at 100 µM (Aurora-A (h)): 69% | inhibition at 100 µM (KDR (h)): 97% | inhibition at 100 µM (p70S6K (h)): 87%
Structure (SMILES): [O-][n+]1nc(-c2cn[nH]c2)nc2ccccc21 [Example 12, 3-(1H-Pyrazol-4-yl)-benzo[1,2,4]triazine 1-oxide]

Chk1 (h) % inhibition (CHK1 (h)): 14% | AuroraA (h) % inhibition (Aurora-A (h)): 64% | P70S6 (h) % inhibition (p70S6K (h)): 0%
Structure (SMILES): [O-][n+]1nc(Nc2cccnc2)nc2ccccc21 [Example 4, (1-Oxy-benzo[1,2,4]triazin-3-yl)-pyridin-3-yl-amine]

inhibition at 100 µM (CHK1 (h)): 20% | inhibition at 100 µM (Aurora-A (h)): 81% | inhibition at 100 µM (KDR (h)): 89% | inhibition at 100 µM (p70S6K (h)): 47%
Structure (SMILES): Nc1nnc2cc(-c3ccn[nH]3)ccc2n1 [Example 14, 7-(2H-Pyrazol-3-yl)-benzo[1,2,4]triazin-3-ylamine]

inhibition at 100 µM (Arg (h)): 95% | inhibition at 100 µM (Aurora-A (h)): 79% | inhibition at 100 µM (Abl (h)): 89%
Structure (SMILES): c1ccc2nc(Nc3ccc(N4CCNCC4)nc3)nnc2c1 [Example 19, Benzo[1,2,4]triazin-3-yl-(6-piperazin-1-yl-pyridin-3-yl)-amine]

KDR (h) % inhibition (KDR (h)): 3% | P70S6 (h) % inhibition (p70S6K (h)): 62%
Structure (SMILES): Cl.Nc1nc2cc(OCC3CCNCC3)ccc2[n+]([O-])n1 [Example 27, 1-Oxy-6-(piperidin-4-ylmethoxy)-benzo[1,2,4]triazin-3-ylamine.hydrochloride]

inhibition at 100 µM (KDR (h)): 11% | inhibition at 100 µM (p70S6K (h)): 52%
Structure (SMILES): Nc1nnc2ccc(OCCc3ccc(Cl)c(Cl)c3)cc2n1 [Example 30, 6-[2-(3,4-Dichloro-phenyl)-ethoxy]-benzo[1,2,4]triazin-3-ylamine]

AuroraA (h) % inhibition (Aurora-A (h)): 92%
Structure (SMILES): [O-][n+]1nc(Nc2cccnc2)nc2cc(-c3ccccc3)ccc21 [Example 24, (1-Oxy-6-phenyl-benzo[1,2,4]triazin-3-yl)-pyridin-3-yl-amine]
